What was measured:
[1] = test system: ALS (acetolactate syntase); assay: ALS enzyme assay (Test 1); type: biochemical, barnyardgrass; conditions: 1,000 ppm (0.5 mg/0.5 ml)
How it was run: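 Partially purified ALS from dark-grown pea and barnyardgrass seedlings incubated 1 h at 30° C with pyruvate, TPP, MgCl2 and FAD. Compounds tested at 1,000 ppm (0.5 mg/0.5 ml). Acetoin formed detected colorimetrically at 525 nm via creatine/α-naphthol, relative to blank and acid-stopped controls.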

[2] = test system: barnyardgrass; assay: Upland soil application test (Test 2); type: in vivo; conditions: 30 g ai/a, soil spray before emergence, 30 days later
How it was run: (§1)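 Soil-surface application of water-diluted wettable powder at 10 l per are, made one day after seeding and ahead of weed emergence. Plants stayed in the greenhouse for 30 days; injury was rated by air-dried weight versus untreated pots.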

[3] = test system: common lambsquarters; assay: Upland soil application test (Test 2); type: in vivo; conditions: 30 g ai/a, soil spray before emergence, 30 days later
How it was run: as §1

[4] = test system: foxtail meadow; assay: Upland soil application test (Test 2); type: in vivo; conditions: 30 g ai/a, soil spray before emergence, 30 days later
How it was run: as §1

[5] = test system: green foxtail; assay: Upland soil application test (Test 2); type: in vivo; conditions: 30 g ai/a, soil spray before emergence, 30 days later
How it was run: as §1

[6] = test system: johnsongrass; assay: Upland soil application test (Test 2); type: in vivo; conditions: 30 g ai/a, soil spray before emergence, 30 days later
How it was run: as §1

[7] = test system: large crabgrass; assay: Upland soil application test (Test 2); type: in vivo; conditions: 30 g ai/a, soil spray before emergence, 30 days later
How it was run: as §1

[8] = test system: redroot pigweed; assay: Upland soil application test (Test 2); type: in vivo; conditions: 30 g ai/a, soil spray before emergence, 30 days later
How it was run: as §1

[9] = test system: cotton; assay: Upland soil application test (Test 2), crop injury; type: in vivo; conditions: 30 g ai/a, soil spray before emergence, 30 days later
How it was run: (§2)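 Damage was graded 30 days after treatment by comparing air-dried plant weight with that of plants in untreated pots. Test compound, given as a diluted wettable powder, had been sprayed on the soil surface one day after sowing, before any weeds emerged.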

[10] = test system: peanut; assay: Upland soil application test (Test 2), crop injury; type: in vivo; conditions: 30 g ai/a, soil spray before emergence, 30 days later
How it was run: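 Pre-emergence soil spray, greenhouse. Weed seeds mixed through upland soil; crops sown alongside. Day 1 post-sowing: wettable-powder formulation, water-diluted, applied at 10 l/are by pressure ULV sprayer. Read at 30 days as air-dried weight vs untreated pots, scored on a graded damage scale.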

[11] = test system: soybean; assay: Upland soil application test (Test 2), crop injury; type: in vivo; conditions: 30 g ai/a, soil spray before emergence, 30 days later
How it was run: as §2

[12] = test system: Sagittaria pygmaea; assay: Treatment of soil under submerged condition, pre-emergence (Test 4); type: in vivo; conditions: 30 g ai/a granule, 30 days later
How it was run: (§3)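 Wagner pots of soil were seeded or planted with weed seeds or tubers under flooding, then 2–3-leaf rice seedling pairs were transplanted and grown in a greenhouse. One day later, before weed emergence, pots received a granule of the test composition at a predetermined amount. Weed emergence and rice injury were scored 30 days later.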

[13] = test system: barnyardgrass; assay: as above; type: in vivo; conditions: 30 g ai/a granule, 30 days later
How it was run: as §3

[14] = test system: bulrush; assay: as above; type: in vivo; conditions: 30 g ai/a granule, 30 days later
How it was run: as §3

[15] = test system: Sagittaria pygmaea; assay: Treatment of soil under submerged condition, post-emergence (Test 5); type: in vivo; conditions: 30 g ai/a granule, 30 days later
How it was run: (§4)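 Granule applied to submerged greenhouse pots at two-leaf barnyardgrass; transplanted 2–3-leaf rice present; weed damage and rice injury graded 30 days on.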

[16] = test system: barnyardgrass; assay: as above; type: in vivo; conditions: 30 g ai/a granule, post-emergence (barnyardgrass two-leaf stage), 30 days later
How it was run: as §4

[17] = test system: bulrush; assay: as above; type: in vivo; conditions: 30 g ai/a granule, 30 days later
How it was run: as §4

For `COc1cc(OC)nc(Oc2ccccc2C=NOCc2cccc3ccccc23)n1` [compound 22], the “Inhibitory activity (%) Barnyardgrass” value [1] was 35%, the “Herbicidal effects Barnyardgrass” value [2] was 3 (11-40 (Medium damages)) and the “Herbicidal effects Common lambsquarters” value [3] was 3 (11-40 (Medium damages)). For the same molecule, the “Herbicidal effects Foxtail meadow” value [4] was 4 (6-10 (Severe damages)), the “Herbicidal effects Green foxtail” value [5] was 4 (6-10 (Severe damages)) and the “Herbicidal effects Johnsongrass” value [6] was 4 (6-10 (Severe damages)). For the same molecule, the “Herbicidal effects Large crabgrass” value [7] was 3 (11-40 (Medium damages)), the “Herbicidal effects Redroot pigweed” value [8] was 3 (11-40 (Medium damages)) and the “Injury Cotton” value [9] was 0 (91-100 (No damages)). For the same molecule, the “Injury Peanut” value [10] was 0 (91-100 (No damages)), the “Injury Soybean” value [11] was 0 (91-100 (No damages)) and the “Herbicidal effects Sagittaria Pygmaea” value [12] was 3 (11-40 (Medium damages)). For the same molecule, the “Herbicidal effects Barnyardgrass” value [13] was 3 (11-40 (Medium damages)), the “Herbicidal effects Bulrush” value [14] was 3 (11-40 (Medium damages)) and the “Herbicidal effects Sagittaria Pygmaea” value [15] was 3 (11-40 (Medium damages)). The “Herbicidal effects Barnyardgrass” value [16] was 5 (0-5 (Death)) and the “Herbicidal effects Bulrush” value [17] was 4 (6-10 (Severe damages)).

`COc1cc(OC)nc(Oc2ccccc2C=NOC2CCCCC2)n1` [Compound No. 3] was tested, and the “Inhibitory activity (%) Barnyardgrass” value [1] was 22%, the “Herbicidal effects Barnyardgrass” value [2] was 3 (11-40 (Medium damages)) and the “Herbicidal effects Common lambsquarters” value [3] was 3 (11-40 (Medium damages)). The “Herbicidal effects Foxtail meadow” value [4] was 3 (11-40 (Medium damages)), the “Herbicidal effects Green foxtail” value [5] was 4 (6-10 (Severe damages)) and the “Herbicidal effects Johnsongrass” value [6] was 4 (6-10 (Severe damages)). For the same molecule, the “Herbicidal effects Large crabgrass” value [7] was 3 (11-40 (Medium damages)), the “Herbicidal effects Redroot pigweed” value [8] was 3 (11-40 (Medium damages)) and the “Injury Cotton” value [9] was 0 (91-100 (No damages)). For the same molecule, the “Injury Peanut” value [10] was 0 (91-100 (No damages)), the “Injury Soybean” value [11] was 0 (91-100 (No damages)) and the “Herbicidal effects Sagittaria Pygmaea” value [12] was 5 (0-5 (Death)). For the same molecule, the “Herbicidal effects Barnyardgrass” value [13] was 4 (6-10 (Severe damages)), the “Herbicidal effects Bulrush” value [14] was 4 (6-10 (Severe damages)) and the “Herbicidal effects Sagittaria Pygmaea” value [15] was 3 (11-40 (Medium damages)). The “Herbicidal effects Barnyardgrass” value [16] was 3 (11-40 (Medium damages)) and the “Herbicidal effects Bulrush” value [17] was 3 (11-40 (Medium damages)).

In the case of `COc1cc(OC)nc(Oc2ccccc2C=NOCC=C(C)C)n1` [Compound No. 7], the “Inhibitory activity (%) Barnyardgrass” value [1] is reported as 84%, the “Herbicidal effects Barnyardgrass” value [2] is reported as 5 (0-5 (Death)) and the “Herbicidal effects Common lambsquarters” value [3] is reported as 4 (6-10 (Severe damages)). The “Herbicidal effects Foxtail meadow” value [4] was 5 (0-5 (Death)), the “Herbicidal effects Green foxtail” value [5] was 5 (0-5 (Death)) and the “Herbicidal effects Johnsongrass” value [6] was 5 (0-5 (Death)). For the same molecule, the “Herbicidal effects Large crabgrass” value [7] was 5 (0-5 (Death)), the “Herbicidal effects Redroot pigweed” value [8] was 4 (6-10 (Severe damages)) and the “Injury Cotton” value [9] was 0 (91-100 (No damages)). The “Injury Peanut” value [10] was 0 (91-100 (No damages)), the “Injury Soybean” value [11] was 0 (91-100 (No damages)) and the “Herbicidal effects Sagittaria Pygmaea” value [12] was 5 (0-5 (Death)). For the same molecule, the “Herbicidal effects Barnyardgrass” value [13] was 5 (0-5 (Death)), the “Herbicidal effects Bulrush” value [14] was 4 (6-10 (Severe damages)) and the “Herbicidal effects Sagittaria Pygmaea” value [15] was 3 (11-40 (Medium damages)). The “Herbicidal effects Barnyardgrass” value [16] was 5 (0-5 (Death)) and the “Herbicidal effects Bulrush” value [17] was 5 (0-5 (Death)).

For `COc1cc(OC)nc(Oc2ccccc2C=NOCC=Cc2ccc(C(F)(F)F)cc2)n1` [compound 35], the “Inhibitory activity (%) Barnyardgrass” value [1] was 89%, the “Herbicidal effects Barnyardgrass” value [2] was 5 (0-5 (Death)) and the “Herbicidal effects Common lambsquarters” value [3] was 5 (0-5 (Death)). The “Herbicidal effects Foxtail meadow” value [4] was 5 (0-5 (Death)), the “Herbicidal effects Green foxtail” value [5] was 5 (0-5 (Death)) and the “Herbicidal effects Johnsongrass” value [6] was 5 (0-5 (Death)). The “Herbicidal effects Large crabgrass” value [7] was 5 (0-5 (Death)), the “Herbicidal effects Redroot pigweed” value [8] was 4 (6-10 (Severe damages)) and the “Injury Cotton” value [9] was 0 (91-100 (No damages)). The “Injury Peanut” value [10] was 0 (91-100 (No damages)), the “Injury Soybean” value [11] was 0 (91-100 (No damages)) and the “Herbicidal effects Sagittaria Pygmaea” value [12] was 5 (0-5 (Death)). The “Herbicidal effects Barnyardgrass” value [13] was 4 (6-10 (Severe damages)), the “Herbicidal effects Bulrush” value [14] was 3 (11-40 (Medium damages)) and the “Herbicidal effects Sagittaria Pygmaea” value [15] was 3 (11-40 (Medium damages)). For the same molecule, the “Herbicidal effects Barnyardgrass” value [16] was 5 (0-5 (Death)) and the “Herbicidal effects Bulrush” value [17] was 4 (6-10 (Severe damages)).

With `COc1cc(OC)nc(Oc2ccccc2C=NO)n1` [Compound No. 24, 2-(4,6-dimethoxy-2-pyrimidinyloxy)-benzaloxime] the “Inhibitory activity (%) Barnyardgrass” value [1] was 36%, the “Herbicidal effects Barnyardgrass” value [2] was 4 (6-10 (Severe damages)) and the “Herbicidal effects Common lambsquarters” value [3] was 4 (6-10 (Severe damages)). The “Herbicidal effects Foxtail meadow” value [4] was 5 (0-5 (Death)), the “Herbicidal effects Green foxtail” value [5] was 5 (0-5 (Death)) and the “Herbicidal effects Johnsongrass” value [6] was 5 (0-5 (Death)). The “Herbicidal effects Large crabgrass” value [7] was 4 (6-10 (Severe damages)), the “Herbicidal effects Redroot pigweed” value [8] was 4 (6-10 (Severe damages)) and the “Injury Cotton” value [9] was 0 (91-100 (No damages)). For the same molecule, the “Injury Peanut” value [10] was 0 (91-100 (No damages)), the “Injury Soybean” value [11] was 0 (91-100 (No damages)) and the “Herbicidal effects Sagittaria Pygmaea” value [12] was 4 (6-10 (Severe damages)). For the same molecule, the “Herbicidal effects Barnyardgrass” value [13] was 3 (11-40 (Medium damages)), the “Herbicidal effects Bulrush” value [14] was 2 (41-70 (Small damages)) and the “Herbicidal effects Sagittaria Pygmaea” value [15] was 4 (6-10 (Severe damages)). The “Herbicidal effects Barnyardgrass” value [16] was 5 (0-5 (Death)) and the “Herbicidal effects Bulrush” value [17] was 5 (0-5 (Death)).

With `COc1cc(OC)nc(Oc2ccccc2C=NOCC=Cc2ccccc2)n1` [Compound No. 9] the “Inhibitory activity (%) Barnyardgrass” value [1] was 95%, the “Herbicidal effects Barnyardgrass” value [2] was 5 (0-5 (Death)) and the “Herbicidal effects Common lambsquarters” value [3] was 4 (6-10 (Severe damages)). The “Herbicidal effects Foxtail meadow” value [4] was 5 (0-5 (Death)), the “Herbicidal effects Green foxtail” value [5] was 5 (0-5 (Death)) and the “Herbicidal effects Johnsongrass” value [6] was 5 (0-5 (Death)). For the same molecule, the “Herbicidal effects Large crabgrass” value [7] was 5 (0-5 (Death)), the “Herbicidal effects Redroot pigweed” value [8] was 5 (0-5 (Death)) and the “Injury Cotton” value [9] was 0 (91-100 (No damages)). The “Injury Peanut” value [10] was 0 (91-100 (No damages)), the “Injury Soybean” value [11] was 0 (91-100 (No damages)) and the “Herbicidal effects Sagittaria Pygmaea” value [12] was 5 (0-5 (Death)). The “Herbicidal effects Barnyardgrass” value [13] was 5 (0-5 (Death)), the “Herbicidal effects Bulrush” value [14] was 4 (6-10 (Severe damages)) and the “Herbicidal effects Sagittaria Pygmaea” value [15] was 5 (0-5 (Death)). For the same molecule, the “Herbicidal effects Barnyardgrass” value [16] was 5 (0-5 (Death)) and the “Herbicidal effects Bulrush” value [17] was 5 (0-5 (Death)).

With `COc1cc(OC)nc(Oc2ccccc2C=NOCC=Cc2ccccc2Br)n1` [compound 40] the “Inhibitory activity (%) Barnyardgrass” value [1] was 94%, the “Herbicidal effects Barnyardgrass” value [2] was 5 (0-5 (Death)) and the “Herbicidal effects Common lambsquarters” value [3] was 4 (6-10 (Severe damages)). The “Herbicidal effects Foxtail meadow” value [4] was 5 (0-5 (Death)), the “Herbicidal effects Green foxtail” value [5] was 4 (6-10 (Severe damages)) and the “Herbicidal effects Johnsongrass” value [6] was 4 (6-10 (Severe damages)). For the same molecule, the “Herbicidal effects Large crabgrass” value [7] was 4 (6-10 (Severe damages)), the “Herbicidal effects Redroot pigweed” value [8] was 5 (0-5 (Death)) and the “Injury Cotton” value [9] was 0 (91-100 (No damages)). The “Injury Peanut” value [10] was 0 (91-100 (No damages)), the “Injury Soybean” value [11] was 0 (91-100 (No damages)) and the “Herbicidal effects Sagittaria Pygmaea” value [12] was 5 (0-5 (Death)). For the same molecule, the “Herbicidal effects Barnyardgrass” value [13] was 5 (0-5 (Death)), the “Herbicidal effects Bulrush” value [14] was 3 (11-40 (Medium damages)) and the “Herbicidal effects Sagittaria Pygmaea” value [15] was 4 (6-10 (Severe damages)). The “Herbicidal effects Barnyardgrass” value [16] was 5 (0-5 (Death)) and the “Herbicidal effects Bulrush” value [17] was 4 (6-10 (Severe damages)).
